According to patent US20230212170A1, “INHIBITORS OF KRAS G12C PROTEIN AND USES THEREOF” (SHANGHAI ANTENGENE CORPORATION LIMITED, priority 2020, published 2023):
Read-outs that look alike come from different tables or passages of the source.

Assays:
KRAS G12C [1] = target: T1, KRAS G12C (Homo sapiens, UniProt P01116, G12C); assay: KRAS GDP FI assay; format: biochemical; details: kinetic reading Ex580/Em620 for 120 min
From the text: Assay 2: KRAS GDP FI Assay
1. Prepare compound dilution plate.
2. Transfer Inhibitor/DMSO to assay plate by Echo.
3. Prepare 1× assay buffer.
4. Prepare KRAS G12C mix & SOS1 mix & GTP mix & detection reagent mix.
5. Add KRAS G12C mix, SOS1 mix, GTP mix.
6. Add detection reagent mix to assay plate.
Target sequence in this assay (P01116 1-188 isoform P01116-2 G12C): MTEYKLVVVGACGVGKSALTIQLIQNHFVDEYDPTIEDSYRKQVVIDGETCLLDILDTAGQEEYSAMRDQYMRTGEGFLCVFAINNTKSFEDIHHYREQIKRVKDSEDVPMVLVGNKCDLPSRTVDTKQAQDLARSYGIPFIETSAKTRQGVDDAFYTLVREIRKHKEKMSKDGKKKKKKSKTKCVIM

NCI-H358 = assay: Tumor cell anti-proliferation assay (CTG assay), NCI-H358; format: cell-based; details: NCI-H358, 3-days incubation, CTG, read-out: IC50 NCI-H358
Experimental: (§1) Assay 3: Tumor Cell Anti-Proliferation Assay (CTG Assay)
(§2) Tested tumor cell lines (MIA PaCa-2, NCI-H358, and A549) were seeded to the 96-well plate for overnight, then cells were treated with the test compound at 9 serially diluted concentrations in triplicate. After 3-days incubation with the test compound, the CTG assay was performed to evaluate the IC50. The 3 cell lines were tested in the same manner. Cisplatin were used as the positive control.
(§3) Day −1: Cell Plating for Cell Lines
(§4) 1. Adjust the cell concentration to the appropriated number with the medium, and for each well of a 96-well plate, add 90 μl cell suspensions (Cell concentration will be adjusted according to the data base or density optimization assay). 2. Incubate the plates for overnight in humidified incubator at […] with 5% CO2.
(§5) Day 0: T0 Plate Reading and Compound Treatment
(§6) 3. Add 10 μL culture medium to each well of plate A for T0 reading.
(§7) 4. Equilibrate the plate and its content at RT for approximately 30 min.
(§8) 5. Add 50 μL CellTiter-Glo® Reagent to each well for T0 reading.
(§9) 6. Mix contents for 2 minutes on an orbital shaker to facilitate cell lysis.
(§10) 7. Allow the plate to incubate at room temperature for 10 minutes to stabilize the luminescent signal. Note: Uneven luminescent signal within standard plates can be caused by temperature gradients, uneven seeding of cells or edge effects in multiwall plates.
(§11) 8. Place a black BackSeal sticker to the bottom of each plate.
(§12) 9. Record luminescence using an Envision Multi Label Reader.
(§13) 10. Dilute the test compound and the positive control (Cisplatin). Add 10 μL of 10× test compound working solutions into the corresponding wells. Incubate the test plates in the humidified incubator at 37° C. with 5% Co2.
(§14) Day 3: Plate Reading for 3-Day Assay
(§15) 11. Monitor under the microscope to make sure that the cells in control wells are healthy.
(§16) 12. After three days incubation, add 50 μL CellTiter-Glo® Reagent to each well.
(§17) 13. Mix contents for 2 minutes on an orbital shaker to facilitate cell lysis.
(§18) 14. Allow the plate to incubate at room temperature for 10 minutes to stabilize the luminescent signal.
(§19) 15. Note: Uneven luminescent signal within standard plates can be caused by temperature gradients, uneven seeding of cells or edge effects in multiwall plates.
(§20) 16. Place a black BackSeal sticker to the bottom of each plate.
(§21) 17. Record luminescence using an Envision Multi Label Reader.
(§22) In order to calculate IC50, a dose-response curve was fitted using nonlinear regression model with a sigmoidal dose response. The formula of the surviving rate is shown below, and the IC50 was automatically produced by GraphPad Prism 5.0.
(§23) The surviving rate […]=(LumTest compound−LumMedium control)/(LumNone treated-LumMedium control)×100%.
(§24) LumNone treated-LumMedium control is set as 100% o and LumMedium control is set as […]. T0 value will be presented as percentage of LumNone treated.

MIA PaCa-2 = assay: Tumor cell anti-proliferation assay (CTG assay), MIA PaCa-2; format: cell-based; details: MIA PaCa-2, 3-days incubation, CTG, read-out: IC50 MIA PaCa-2
Experimental: as §1, §2, §3, §4, §5, §6, §7, §8, §9, §10, §11, §12, §13, §14, §15, §16, §17, §18, §19, §20, §21, §22, §23, §24

A549 = assay: Tumor cell anti-proliferation assay (CTG assay), A549; format: cell-based; details: A549, 3-days incubation
Experimental: as §1, §2, §3, §4, §5, §6, §7, §8, §9, §10, §11, §12, §13, §14, §15, §16, §17, §18, §19, §20, §21, §22, §23, §24

[2] = Pharmacokinetics study in plasma of ICR mice, intravenous or oral administration; format: in vivo; details: male ICR mice
Experimental: The purpose of this study is to determine the pharmacokinetics parameters in plasma of compounds in ICR mice following intravenous or oral administration.
The formulations were based on sponsor's recommendation and will be prepared by the Testing Facility.
Species and Strain: ICR Mice (Male)
Source: Sino-British SIPPR Lab Animal Ltd, Shanghai
Number of Animals: Ordered: 8; Needed: 6
The test article was be administered via a single IV or PO dosing.
IV group: Post-dose at 5 min, 15 min, 30 min, 1 h, 2 h, 4 h, 8 h and 24 h.
PO group: Post-dose at 15 min, 30 min, 1 h, 2 h, 4 h, 6 h, 8 h and 24 h.
30˜40 μL/sample. Samples were be placed in tubes containing heparin sodium and stored on ice until centrifuged.
The PK blood samples were centrifuged at approximately 6800G for 6 minutes at 2-8° C. and the resulting plasma was transferred to appropriately labeled tubes within 2 hour of blood collection/centrifugation and stored frozen at approximately −70° C.
Method development and biological samples analysis for the test articles (Sodium heparin anticoagulant) were be performed by Testing Facility by means of LC-MS/MS. The analytical results were be confirmed using quality control samples for intra-assay variation. The accuracy of >66.7% of the quality control samples were be between 80-120% of the known value(s).
Pharmacokinetics Analysis
Standard set of parameters including Area Under the Curve (AUC(0-t) and AUC(0-∞)), elimination half-live (T1/2), maximum plasma concentration (Cmax) and time to reach maximum plasma concentration (Tmax) and other parameters were be calculated using Phoenix WinNonlin 7.0 (Pharsight, USA) by the Study Director.

KRAS G12C [3] = target: T1, KRAS G12C; assay: KRAS G12C nucleotide exchange assay (SOS1-mediated, mant-GDP fluorescence); format: biochemical; set-up: KRas(1-169) G12C protein; details: 15 min pre-incubation
Target sequence in this assay (P01116 1-169 isoform P01116-2 G12C): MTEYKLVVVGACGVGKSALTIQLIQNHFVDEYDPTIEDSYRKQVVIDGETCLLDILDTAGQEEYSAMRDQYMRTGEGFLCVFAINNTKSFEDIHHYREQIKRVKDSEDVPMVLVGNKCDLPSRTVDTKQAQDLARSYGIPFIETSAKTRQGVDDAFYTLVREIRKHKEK

[4] = mouse, 1 mg/kg, IV, 1 mpk, plasma
[5] = mouse, 10 mg/kg, PO, 10 mpk, fasted, plasma

Row | SMILES | IC50 (NCI-H358) | IC50 (MIA PaCa-2; Homo sapiens, MIA PaCa-2, 72 h) | IC50 (A549; Homo sapiens, 72 h) | IC50 (MIA PaCa-2) | IC50 (KRAS G12C [3]) | other results
1 | C=CC(=O)N1C[C@H](C)N(c2nc(OC[C@@H]3CCCN3C)nc3c(=O)n(-c4cccc5cccc(Cl)c45)c(C(F)(F)F)nc23)[C@@H](C)C1 (single isomer, unassigned) [Example 29-a] | 148 nM | – | – | – | – | IC50 (KRAS G12C [1]): 89 nM
2 | C=CC(=O)N1C[C@H](C)N(c2nc(OC[C@@H]3CCCN3C)nc3c(=O)n(-c4cccc5cccc(Cl)c45)c(C(F)(F)F)nc23)[C@@H](C)C1 (single isomer, unassigned) [Example 29-b] | 28.6 nM | 906 nM | > 10000 nM | – | – | IC50 (KRAS G12C [1]): 127 nM; F ([2]; PO 10 mpk vs IV 1 mpk): 26.74%; AUC [2, 4]: 0.993 µM·h; C0 [2, 4]: 659 nM; Vd [2, 4]: 2.97 L/kg; clearance [2, 4]: 25.7 mL/min/kg; half-life [2, 4]: 1.59 h; AUC [2, 5]: 2.58 µM·h; Cmax [2, 5]: 729 nM; Tmax [2, 5]: 0.42 h; half-life [2, 5]: 2.39 h
3 | C=CC(=O)N1C[C@H](C)N(c2nc(OC[C@@H]3CCCN3C)nc3c(=O)n(-c4cccc5cccc(F)c45)c(C(F)(F)F)nc23)[C@@H](C)C1 (single isomer, unassigned) [Example 34-a] | 202 nM | 1230 nM | > 10000 nM | – | – | –
4 | C=CC(=O)N1C[C@H](C)N(c2nc(OC[C@@H]3CCCN3C)nc3c(=O)n(-c4cccc5cccc(F)c45)c(C(F)(F)F)nc23)[C@@H](C)C1 (single isomer, unassigned) [Example 34-b] | 82 nM | – | – | 679 nM | – | IC50 (A549): > 10000 nM
5 | C=CC(=O)N1C[C@H](C)N(c2nc(OC[C@@H]3CCCN3C)nc3c(=O)n(-c4cc(OC)cc5ccccc45)c(C(F)(F)F)nc23)[C@@H](C)C1 (single isomer, unassigned) [Example 35-a] | 1180 nM | – | > 10000 nM | 2650 nM | – | –
6 | C=CC(=O)N1C[C@H](C)N(c2nc(OC[C@@H]3CCCN3C)nc3c(=O)n(-c4cc(OC)cc5ccccc45)c(C(F)(F)F)nc23)[C@@H](C)C1 (single isomer, unassigned) [Example 35-b] | 206 nM | – | – | 916 nM | – | IC50 (A549): > 10000 nM
7 | N.N.[Cl][Pt][Cl] [Cisplatin, reference compound] | 25000 nM | – | – | 14300 nM | – | IC50 (A549): 31100 nM
8 | Cc1nc2c(N3CCN[C@@H](CC#N)C3)nc(OC[C@@H]3CCCN3C)nc2c(=O)n1-c1cccc2ccccc12 [Compound 2, 2-((S)-4-(6-methyl-2-(((S)-1-methylpyrrolidin-2-yl)methoxy)-7-(naphthalen-1-yl)-8-oxo-7,8-dihydropyrimido[5,4-d]pyrimidin-4-yl)piperazin-2-yl)acetonitrile] | – | 642 nM | > 5000 nM | – | 690 nM | IC50 (NCI-H358; Homo sapiens, NCI-H358, 72 h): 1340 nM
9 | C=CC(=O)N1CCN(c2nc(OC[C@@H]3CCCN3C)nc3c(=O)n(-c4cccc5cccc(Cl)c45)c(C)nc23)C[C@@H]1CC#N [Compound 4, 2-((S)-1-acryloyl-4-(7-(8-chloronaphthalen-1-yl)-6-methyl-2-(((S)-1-methylpyrrolidin-2-yl)methoxy)-8-oxo-7,8-dihydropyrimido[5,4-d]pyrimidin-4-yl)piperazin-2-yl)acetonitrile] | – | 504 nM | > 5000 nM | – | 560 nM | IC50 (NCI-H358; Homo sapiens, NCI-H358, 72 h): 476 nM
10 | C=CC(=O)N1CCN(c2nc(OC[C@@H]3CCCN3C)nc3c(=O)n(-c4cccc5cccc(Cl)c45)c(=O)[nH]c23)C[C@@H]1CC#N [Compound 19, 2-((S)-1-acryloyl-4-(7-(8-chloronaphthalen-1-yl)-2-(((S)-1-methylpyrrolidin-2-yl)methoxy)-6,8-dioxo-5,6,7,8-tetrahydropyrimido[5,4-d]pyrimidin-4-yl)piperazin-2-yl)acetonitrile] | – | > 5000 nM | > 5000 nM | – | 370 nM | IC50 (NCI-H358; Homo sapiens, NCI-H358, 72 h): > 5000 nM
11 | C=CC(=O)N1CCN(c2nc(OC[C@@H]3CCCN3C)nc3c(=O)n(-c4cccc5cccc(Cl)c45)c(C(F)(F)F)nc23)C[C@@H]1CC#N [Example 31, 2-((S)-1-acryloyl-4-(7-(8-chloronaphthalen-1-yl)-2-(((S)-1-methylpyrrolidin-2-yl)methoxy)-8-oxo-6-(trifluoromethyl)-7,8-dihydropyrimido[5,4-d]pyrimidin-4-yl)piperazin-2-yl)acetonitrile] | – | 124 nM | > 10000 nM | – | 446 nM | IC50 (KRAS G12C [1]): 116 nM
